Laboratory results published in patent publication US6867320B2, “Substituted phenylalkanoic acid derivatives and use thereof” (Asahi Kasei Pharma Corporation, priority 2002, dated 2005).

How the values were obtained:
[1] = tested on: PGD2 production from IgE-stimulated RBL-2H3 cells; experiment: Suppressing action on PGD2 production from IgE-stimulated RBL-2H3 cells; format: cell-based; conditions: Rattus norvegicus, 10 min, IgE/DNP-BSA stimulated RBL-2H3 cells, read-out: PGD2 production suppression ratio
Method in brief: (§1)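 Rat RBL-2H3 mastocytoma cells, sensitized 30 min with anti-DNP-BSA IgE, then given test compound in 0.5% FBS medium and stimulated with DNP-BSA (100 ng/ml final). Supernatant PGD2 and LTB4 were measured by EIA after 10 min. Suppression ratio is calculated against unstimulated and stimulant-only controls.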

[2] = tested on: zymosan-stimulated footpad edema; experiment: Mouse zymosan-stimulated footpad edema reaction; format: in vivo; conditions: ICR female mice, oral 0.1 to 500 mg/kg, compared with positive control group
Method in brief: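 Female ICR mice (6–7 weeks, n=8) dosed orally at 0.1 to 500 mg/kg in 0.5% methylcellulose; 1 h later zymosan (1 mg/ml, 0.02 ml) injected s.c. into right hind footpad. Edema volume at 1 and 2 h gave AUC to 2 h; suppression (%) calculated against positive control AUC.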

[3] = tested on: PGE2 production from IL-1β-stimulated MG-63 cells; experiment: Suppressing action on PGE2 production from IL-1β-stimulated MG-63 cells; format: cell-based; conditions: Homo sapiens, IL-1β 1 ng/ml, 18 hours, read-out: PGE2 production suppression ratio
Method in brief: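 Human osteosarcoma MG-63 cells (2×10^4/well) switched to 0.5% FBS medium, treated with compound, then stimulated with IL-1β at 1 ng/ml final for 18 h. Supernatant PGE2 measured by EIA; suppression ratio calculated against stimulated and unstimulated wells.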

[4] = tested on: IgE-stimulated footpad edema; experiment: Mouse IgE-stimulated footpad edema reaction; format: in vivo; conditions: C57BL/6 male mice, oral 0.1 to 500 mg/kg, compared with positive control group
Description: 4. Suppressing Effect on Mouse IgE-stimulated Footpad Edema Reaction
Suppression on footpad edema caused by IgE antibody as an allergic stimulant was studied by the following method. Groups of C57BL/6 male mice (9- to 11-week old) each consisting of five mice were used for the test. Anti-DNP-BSA IgE serum was subcutaneously administered in a volume of 20 μl to right hind leg footpad of each mouse one day before the test. A test compound was suspended or dissolved in purified water containing 0.5% methylcellulose and orally administered to the test animals at 0.1 to 500 mg/0.2 ml/kg. To the control group, purified water containing 0.5% methylcellulose was administered in a similar manner, which was not added with the test compound. Two hours after the administration of the test compound, 0.2 ml of a solution of DNP-BSA dissolved in physiological saline (Otsuka Pharmaceutical) at 2.5 μg/ml was intravenously administered. The thickness of right hind leg footpad was measured by using a digital thickness gauge (MITSUTOYO) 10, 15, 20, and 30 minutes after the administration of DNP-BSA. A difference of the thickness of footpad measured above and the thickness before the administration of the test compound measured beforehand was regarded as a thickness of edema.
For the thickness of the edema at 10, 15, 20 and 30 minutes after the DNP-BSA administration, a graph was prepared indicating time in abscissa and the edema thickness in ordinate, and edema thickness AUC […] was obtained by calculation according to the following equation. Edema thickness AUC (mm·minute)=1/2×10×A+5×(A+B)/2+5×(B+C)/2+10×(C+D)/2 • A: Edema thickness 10 minutes after DNP-BSA administration • B: Edema thickness 15 minutes after DNP-BSA administration • C: Edema thickness 20 minutes after DNP-BSA administration • D: Edema thickness 30 minutes after DNP-BSA administration
A suppressing ratio on edema of a test compound was obtained by calculation in accordance with the following equation. Edema suppression ratio (%)=[1−B/A]×100 • A: Edema thickness AUC of positive control • B: Edema thickness AUC of test compound administered group (2) Measurement Results

[5] = tested on: LTB4 production from IgE-stimulated RBL-2H3 cells; experiment: Suppressing action on LTB4 production from IgE-stimulated RBL-2H3 cells; format: cell-based; conditions: Rattus norvegicus, 10 min, IgE/DNP-BSA stimulated RBL-2H3 cells, read-out: LTB4 production suppression ratio
Method in brief: as §1

`CC(C)C(C)COc1ccc(CCC(=O)O)cc1-c1ccc2[nH]ccc2c1` (stereo not shown) [Compound 181, 3-[4-(2,3-dimethylbutyloxy)-3-(1H-indol-5-yl)phenyl]propionic acid] was tested, and the inhibition at 0.4 µM [1] was no less than 50%, the “suppression of footpad edema caused by zymosan” value (from here on “suppression … by zymosan”) [2] was “suppressed footpad edema” and the inhibition at 0.4 µM [3] was no less than 50%. The “suppression of footpad edema caused by IgE stimulation” value (shortened to “suppression … by IgE stimulation”) [4] was “suppressed the footpad edema” and the inhibition at 0.4 µM [5] was no less than 50%.
`O=C(O)CCc1ccc(OCC2CCCCC2)c(-c2ccc3cc(O)ccc3c2)c1` [Compound 002, 3-[4-cyclohexylmethyloxy-3-(6-hydroxynaphthalen-2-yl)phenyl]propionic acid] was tested, and the inhibition at 0.4 µM [1] was no less than 50%, the “suppression … by zymosan” value [2] was “suppressed footpad edema” and the inhibition at 0.4 µM [3] was no less than 50%. The “suppression … by IgE stimulation” value [4] was “suppressed the footpad edema” and the inhibition at 0.4 µM [5] was no less than 50%.
In the case of `Nc1nc2ccc(-c3cc(CCC(=O)O)ccc3OCC3CCCCC3)cc2s1` [Compound 289, 3-[3-(2-aminobenzothiazol-6-yl)-4-cyclohexylmethyloxyphenyl]propionic acid], the inhibition at 0.4 µM [1] is reported as no less than 50%, the “suppression … by zymosan” value [2] is reported as “suppressed footpad edema” and the inhibition at 0.4 µM [3] is reported as no less than 50%. The “suppression … by IgE stimulation” value [4] was “suppressed the footpad edema” and the inhibition at 0.4 µM [5] was no less than 50%.
`O=C(O)CCc1ccc(OC2CCCC2)c(-c2ccc3ccccc3c2)c1` [Compound 043, 3-[4-cyclopentyloxy-3-(naphthalen-2-yl)phenyl]propionic acid] was tested, and the inhibition at 0.4 µM [1] was no less than 50%, the “suppression … by zymosan” value [2] was “suppressed footpad edema” and the inhibition at 0.4 µM [3] was no less than 50%. The “suppression … by IgE stimulation” value [4] was “suppressed the footpad edema” and the inhibition at 0.4 µM [5] was no less than 50%.
With `CC(Oc1ccc(CCC(=O)O)cc1-c1ccc2[nH]ccc2c1)c1ccccc1` (stereo not shown) [Compound 132, 3-[3-(1H-indol-5-yl)-4-(1-phenylethyloxy)phenyl]propionic acid] the inhibition at 0.4 µM [1] was no less than 50%, the “suppression … by zymosan” value [2] was “suppressed footpad edema” and the inhibition at 0.4 µM [3] was no less than 50%. The “suppression … by IgE stimulation” value [4] was “suppressed the footpad edema” and the inhibition at 0.4 µM [5] was no less than 50%.
`CN(CCOc1ccc(CCC(=O)O)cc1-c1ccc2[nH]ccc2c1)c1ccccc1` [Compound 229, 3-{3-(1H-indol-5-yl)-4-[2-(N-phenyl-N-methylamino)-ethyloxy]phenyl}propionic acid] was tested, and the inhibition at 0.4 µM [1] was no less than 50%, the “suppression … by zymosan” value [2] was “suppressed footpad edema” and the inhibition at 0.4 µM [3] was no less than 50%. For the same compound, the “suppression … by IgE stimulation” value [4] was “suppressed the footpad edema” and the inhibition at 0.4 µM [5] was no less than 50%.
With `Cn1ccc2cc(-c3cc(CCC(=O)O)ccc3OCC3CCCCC3)ccc21` [Compound 233, 3-[4-cyclohexylmethyloxy-3-(1-methyl-1H-indol-5-yl)phenyl]propionic acid] the inhibition at 0.4 µM [1] was no less than 50%, the “suppression … by zymosan” value [2] was “suppressed footpad edema” and the inhibition at 0.4 µM [3] was no less than 50%. For the same compound, the “suppression … by IgE stimulation” value [4] was “suppressed the footpad edema” and the inhibition at 0.4 µM [5] was no less than 50%.
`O=C(O)CCc1ccc(OCC2CCCC2)c(-c2ccc3ncsc3c2)c1` [Compound 299, 3-[3-(benzothiazol-6-yl)-4-cyclopentylmethyloxyphenyl]propionic acid] was tested, and the inhibition at 0.4 µM [1] was no less than 50%, the “suppression … by zymosan” value [2] was “suppressed footpad edema” and the inhibition at 0.4 µM [3] was no less than 50%. For the same compound, the “suppression … by IgE stimulation” value [4] was “suppressed the footpad edema” and the inhibition at 0.4 µM [5] was no less than 50%.
In the case of `O=C(O)CCc1ccc(OCCc2ccccc2F)c(-c2ccc3ccccc3c2)c1` [Compound 053, 3-{4-[2-(2-fluorophenyl)ethyloxy]-3-(naphthalen-2-yl)phenyl}propionic acid], the inhibition at 0.4 µM [1] is reported as no less than 50%, the “suppression … by zymosan” value [2] is reported as “suppressed footpad edema” and the inhibition at 0.4 µM [3] is reported as no less than 50%. For the same compound, the “suppression … by IgE stimulation” value [4] was “suppressed the footpad edema” and the inhibition at 0.4 µM [5] was no less than 50%.
`O=C(O)CCc1ccc(OCCC2CCCC2)c(-c2ccc3ccccc3c2)c1` [Compound 047, 3-[4-(2-cyclopentylethyloxy)-3-(naphthalen-2-yl)phenyl]propionic acid] was tested, and the inhibition at 0.4 µM [1] was no less than 50%, the “suppression … by zymosan” value [2] was “suppressed footpad edema” and the inhibition at 0.4 µM [3] was no less than 50%. The “suppression … by IgE stimulation” value [4] was “suppressed the footpad edema” and the inhibition at 0.4 µM [5] was no less than 50%.
In the case of `Cn1ccc2cc(-c3cc(CCC(=O)O)ccc3OCc3ccccc3Cl)ccc21` [Compound 245, 3-[4-(2-chlorophenylmethyloxy)-3-(1-methyl-1H-indol-5-yl)phenyl]propionic acid], the inhibition at 0.4 µM [1] is reported as no less than 50%, the “suppression … by zymosan” value [2] is reported as “suppressed footpad edema” and the inhibition at 0.4 µM [3] is reported as no less than 50%. The “suppression … by IgE stimulation” value [4] was “suppressed the footpad edema” and the inhibition at 0.4 µM [5] was no less than 50%.
For `O=C(O)CCc1ccc(OCC2CCCC2)c(-c2ccc3ccccc3c2)c1` [Compound 039, 3-[4-cyclopentylmethyloxy-3-(naphthalen-2-yl)phenyl]propionic acid], the inhibition at 0.4 µM [1] was no less than 50%, the “suppression … by zymosan” value [2] was “suppressed footpad edema” and the inhibition at 0.4 µM [3] was no less than 50%. For the same compound, the “suppression … by IgE stimulation” value [4] was “suppressed the footpad edema” and the inhibition at 0.4 µM [5] was no less than 50%.
In the case of `O=C(O)CCc1ccc(OCC2CC3CCC2C3)c(-c2ccc3[nH]ccc3c2)c1` (stereo not shown) [Compound 177, 3-[4-(bicyclo[2,2,1]hept-2-ylmethyloxy)-3-(1H-indol-5-yl)phenyl]propionic acid], the inhibition at 0.4 µM [1] is reported as no less than 50%, the “suppression … by zymosan” value [2] is reported as “suppressed footpad edema” and the inhibition at 0.4 µM [3] is reported as no less than 50%. For the same compound, the “suppression … by IgE stimulation” value [4] was “suppressed the footpad edema” and the inhibition at 0.4 µM [5] was no less than 50%.
For `CCCCOc1ccc(COc2ccc(CCC(=O)O)cc2-c2ccc3[nH]ccc3c2)cc1` [Compound 186, 3-{4-[4-(butyloxy)phenylmethyloxy]-3-(1H-indol-5-yl)phenyl}propionic acid], the inhibition at 0.4 µM [1] was no less than 50%, the “suppression … by zymosan” value [2] was “suppressed footpad edema” and the inhibition at 0.4 µM [3] was no less than 50%. For the same compound, the “suppression … by IgE stimulation” value [4] was “suppressed the footpad edema” and the inhibition at 0.4 µM [5] was no less than 50%.
For `O=C(O)CCc1cc(F)c(OCC2CCCC2)c(-c2ccc3[nH]ccc3c2)c1` [Compound 261, 3-[4-cyclopentylmethyloxy-3-fluoro-5-(1H-indol-5-yl)phenyl]propionic acid], the inhibition at 0.4 µM [1] was no less than 50%, the “suppression … by zymosan” value [2] was “suppressed footpad edema” and the inhibition at 0.4 µM [3] was no less than 50%. For the same compound, the “suppression … by IgE stimulation” value [4] was “suppressed the footpad edema” and the inhibition at 0.4 µM [5] was no less than 50%.
In the case of `O=C(O)CCc1ccc(OCC2CCCC2)c(-c2ccc3sccc3c2)c1` [Compound 281, 3-[3-(benzo[b]thiophen-5-yl)-4-cyclopentylmethyloxyphenyl]propionic acid], the inhibition at 0.4 µM [1] is reported as no less than 50%, the “suppression … by zymosan” value [2] is reported as “suppressed footpad edema” and the inhibition at 0.4 µM [3] is reported as no less than 50%. For the same compound, the “suppression … by IgE stimulation” value [4] was “suppressed the footpad edema” and the inhibition at 0.4 µM [5] was no less than 50%.
For `O=C(O)CCc1ccc(OCC2CCCCC2)c(-c2ccc3[nH]ccc3c2)c1` [Compound 231, 3-[4-cyclohexylmethyloxy-3-(1H-indol-5-yl)phenyl]propionic acid], the inhibition at 0.4 µM [1] was no less than 50%, the “suppression … by zymosan” value [2] was “suppressed footpad edema” and the inhibition at 0.4 µM [3] was no less than 50%. For the same compound, the “suppression … by IgE stimulation” value [4] was “suppressed the footpad edema” and the inhibition at 0.4 µM [5] was no less than 50%.
